pIC50: −log10 of the molar value.
What was measured:
[1] = tested on: TNFα release from human peripheral blood mononuclear cells; test: Inhibition of LPS-stimulated TNFα release from human peripheral blood mononuclear cells (TNFα screen, ELISA); assay type: cell-based; settings: human PBMC, 18 hours incubation, TNFα in supernatant by ELISA
Description: Venous blood is collected from healthy volunteers and the mononuclear cells purified by centrifugation through Histopaque (Ficoll) cushions. TNFα production from these cells is stimulated by addition of lipopolysaccharide. After 18 hours incubation in the presence of LPS, the cell supernatant is removed and the concentration of TNFα in the supernatant determined by ELISA.

PDE4 = PDE4 inhibition: hydrolysis of tritium labelled cAMP to AMP, SPA bead scintillation counting; assay type: biochemical; settings: 50% reduction in counts compared to PDE4 only control wells
Description: The PDE4 inhibitory activity of the nicotinamide derivatives of the formula (I) is determined by the ability of compounds to inhibit the hydrolysis of cAMP to AMP by PDE4 (Thompson J W, Teraski W L, Epstein P M, Strada S J., “Assay of nucleotidephosphodiesterase and resolution of multiple molecular forms of the isoenzyme”, Advances in cyclic nucleotides research, edited by Brooker G, Greengard P, Robinson G A. Raven Press, New York 1979, 10, p. 69-92). Tritium labelled cAMP is incubated with PDE4. Following incubation, the radiolabelled AMP produced is able to bind yttrium silicate SPA beads. These SPA beads subsequently produce light that can be quantified by scintillation counting. The addition of a PDE4 inhibitor prevents the formation of AMP from cAMP and counts are diminished. The IC50 of a PDE4 inhibitor can be defined as the concentration of a compound that leads to a 50% reduction in counts compared to the PDE4 only (no inhibitor) control wells.

SMILES	pIC50 [1]	pIC50 (PDE4)
CCOc1cc(O)ccc1C(=O)N[C@H]1CC[C@@H](NC(=O)c2cc(F)cnc2OC2CCSCC2)CC1 [Example 22, Syn-N-[4-(2-Ethoxy-4-hydroxy-benzoylamino)-cyclohexyl]-5-fluoro-2-(tetrahydro-thiopyran-4-yloxy)-nicotinamide]	9.70	
Cc1cccc(C(=O)N[C@H]2CC[C@@H](NC(=O)c3cc(F)cnc3OC3CCSCC3)CC2)c1OCCO [Example 9]	10.00	8.55
O=C(N[C@H]1CC[C@@H](NC(=O)c2cc(F)cnc2OC2CCSCC2)CC1)c1ccccc1OCCCO [Example 14, Syn-5-Fluoro-N-{4-[2-(3-hydroxy-propoxy)-benzoylamino]-cyclohexyl}-2-(tetrahydro-thiopyran-4-yloxy)-nicotinamide]	10.00	
COc1cc(O)ccc1C(=O)N[C@H]1CC[C@@H](NC(=O)c2cc(F)cnc2OC2CCSCC2)CC1 [Example 1]	9.15	
COc1ccc2cccnc2c1S(=O)(=O)N[C@H]1CC[C@@H](NC(=O)c2cccnc2OC2CCSCC2)CC1 [Example 29, Syn-N-[4-(7-methoxy-quinoline-8-sulfonylamino)-cyclohexyl]-2-(tetrahydro-thiopyran-4-yloxy)-nicotinamide]	9.40	
O=C(N[C@H]1CC[C@@H](NC(=O)c2cc(F)cnc2OC2CCSCC2)CC1)c1ccc(O)cc1OCC1CC1 [Example 23]	9.70	
COc1ccc(C)cc1S(=O)(=O)N[C@H]1CC[C@@H](NC(=O)c2cccnc2OC2CCSCC2)CC1 [Example 27, Syn-N-[4-(2-methoxy-5-methyl-benzenesulfonylamino)-cyclohexyl]-2-(tetrahydro-thiopyran-4-yloxy)-nicotinamide]	8.30	
Cc1cnc(OC2CCSCC2)c(C(=O)N[C@H]2CC[C@@H](NC(=O)c3ccccc3OCCO)CC2)c1 [Example 13, Syn-N-{4-[2-(2-Hydroxy-ethoxy)-benzoylamino]-cyclohexyl}-5-methyl-2-(tetrahydro-thiopyran-4-yloxy)-nicotinamide]	8.40	
COc1ccn2ccnc2c1C(=O)N[C@H]1CC[C@@H](NC(=O)c2cc(F)cnc2OC2CCSCC2)CC1 [Example 3, Syn-7-Methoxy-imidazo[1,2-a]pyridine-8-carboxylic acid(4-{[5-fluoro-2-(tetrahydro-thiopyran-4-yloxy)-pyridine-3-carbonyl]-amino}-cyclohexyl)amide]	10.70	
Cc1ccc(C(=O)N[C@H]2CC[C@@H](NC(=O)c3cc(F)cnc3OC3CCSCC3)CC2)c(OCCO)c1 [Example 10]	10.40	8.30
COc1ccccc1-c1cc(C(=O)N[C@H]2CC[C@@H](NC(=O)c3cc(F)cnc3OC3CCSCC3)CC2)n[nH]1 [Example 2, Syn-5-Fluoro-N-(4-{[5-(2-methoxy-phenyl)-1H-pyrazole-3-carbonyl]-amino}-cyclohexyl)-2-(tetrahydro-thiopyran-4-yloxy)-nicotinamide]	8.82	
O=C(N[C@H]1CC[C@@H](NC(=O)c2cc(F)cnc2OC2CCSCC2)CC1)c1ccc(O)cc1OC1CCCC1 [Example 24, Syn-N-[4-(2-Cyclopentoxy-4-hydroxy-benzoylamino)-cyclohexyl]-5-fluoro-2-(tetrahydro-thiopyran-4-yloxy)-nicotinamide]	10.00	
Cc1ccc(OCCO)c(C(=O)N[C@H]2CC[C@@H](NC(=O)c3cc(F)cnc3OC3CCSCC3)CC2)c1 [Example 5]	10.70	9.00
O=C(N[C@H]1CC[C@@H](NC(=O)c2cc(F)cnc2OC2CCSCC2)CC1)c1ccccc1OCCO [Example 4, Syn-5-Fluoro-N-{4-[2-(2-hydroxy-ethoxy)-benzoylamino]-cyclohexyl}-2-(tetrahydro-thiopyran-4-yloxy)-nicotinamide]	10.40	8.82
COc1ccc2cccnc2c1S(=O)(=O)N[C@H]1CC[C@@H](NC(=O)c2cc(F)cnc2OC2CCSCC2)CC1 [Example 28, Syn-5-Fluoro-N-[4-(7-methoxy-quinoline-8-sulfonylamino)-cyclohexyl]-2-(tetrahydro-thiopyran-4-yloxy)-nicotinamide]	9.70	

Source: patent publication US20050020611A1, “Compounds” (priority 2003, published 2005)
